Test: gradient 5% acetonitrile 3 min, to 50% in 2 min, to 85% in 15 min, held 3 min, 100 µL/min
Conditions: column: Zorbax Extend-C18 2.1 x 50 mm; eluents: water / acetonitrile, 0.1% formic acid
Outline: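 Pure standards were analyzed in mixtures of ~100 molecules using HPLC coupled to a quadrupole time-of-flight mass spectrometer, in both positive and negative ionization mode. Separation used a Zorbax Extend-C18 column (2.1 × 50 mm, 1.8 μm) at 100 μL/min, with water and acetonitrile each containing 0.1% formic acid. Dead and dwell volumes were 40 μL and 900 μL, and data were collected over 3 months. Retention time was read from computationally picked adduct peaks, each inspected manually.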

Row | Structure (SMILES) | RP-LC retention time [s]
1 | Cn1nc(C(=O)Nc2ccc(F)cc2)c2c1-c1cc(Cl)ccc1SC2 | 1280
2 | CNC(=O)[C@@H]1C[C@H](Oc2ccccc2)CN1C(=O)C1CCC1 | 680
3 | COc1ccc(S(=O)(=O)N2CCCC(C)(C(=O)NCc3cccc(OC)c3)C2)cc1 (centres undefined) | 903
4 | O=C(CC1CCCCC1)N1CCN(c2cc(-c3ccc(Cl)cc3)[nH]n2)CC1 | 936
5 | CCOc1cc(=O)n2c(c1C(=O)NCC1CCCCC1)CCCCC2 | 772
6 | COc1ccc(N2CC(c3nc(-c4ccc(OC)c(OC)c4)no3)CC2=O)c(OC)c1 (centres undefined) | 743
7 | CCCNC(=O)C1CCN(S(=O)(=O)c2cc(-c3noc(CC)n3)cs2)CC1 | 830
8 | CC1=NS(=O)(=O)N(C)C=C1C(=O)OCc1ccc(C#N)cc1 | 842
9 | Cn1nc(-c2nc(-c3ccc(F)cc3)no2)c2c1CCN(C(=O)NC(C)(C)C)C2 | 966
10 | c1cnn(-c2ccc(-c3noc(C4CCC4)n3)cn2)c1 | 1090
11 | O=C(c1ccc(N2CCOCC2)nn1)N1CCN(c2cccc(C(F)(F)F)c2)CC1 | 779
12 | CCc1nc(N2CCC(C(=O)NCc3ccc(F)c(Cl)c3)CC2)c2c(C)scc2n1 | 1100
13 | Cn1c(N2CCCC(C(=O)Nc3ccc4c(c3)OCCO4)C2)cc(=O)n(C)c1=O (centres undefined) | 663
14 | Cn1ncc(N2CCCC(C(=O)N3CCc4ccccc4C3)C2)cc1=O (centres undefined) | 732
15 | O=C(Cn1ncc2c(c1=O)N(C1CC1)C(=O)CS2)N1CCCc2ccccc21 | 745
16 | CCN1CCc2nc(NC(=O)C3CCN(S(=O)(=O)c4ccc(Cl)s4)CC3)sc2C1 | 656
17 | O=C(NCCC1=CCCCC1)c1nc(-c2ccnc(N3CCCC3)c2)no1 | 747
18 | Cc1ccc(CNC(=O)c2nnc(-c3ccc(S(=O)(=O)N4CCOCC4)cc3)o2)o1 | 820
19 | CCN1c2cc(F)ccc2C(=O)NC12CCN(C(=O)c1cc(OC)cc(OC)c1)CC2 | 813
20 | COc1ccc(-c2noc(-c3ccc(N4CCN(C5CCCCC5)CC4)nc3)n2)cc1 | 778

Row | Structure (SMILES) | RP-LC retention time [s]
21 | CC(C)S(=O)(=O)c1cc2c(cc1NC(=O)c1cccc(F)c1)n(C)c(=O)n2C | 846
22 | CCOC(=O)c1c(S(=O)(=O)N2CCC(C(=O)N3CCc4ccccc43)CC2)c(C)n(C)c1C | 913
23 | Cc1noc(C2(NC(=O)Cc3ccc(F)cc3)CCCCC2)n1 | 837
24 | Cc1sc(-c2cc(C(F)(F)F)on2)cc1S(=O)(=O)NCCc1cccs1 | 1140
25 | CCn1c(=O)sc2cc(S(=O)(=O)N3CCC(C(=O)NCC4CCCO4)CC3)ccc21 (centres undefined) | 719
26 | O=C(NCCCN1CCOCC1)c1ccc2c(c1)NC(=O)C1CCCCN21 (centres undefined) | 582
27 | CCN1CCn2cc(S(=O)(=O)Nc3cccc(C#N)c3)cc2C1=O | 680
28 | CCn1c(=O)sc2cc(S(=O)(=O)N3CCC(C(=O)N4CCCCC4C)CC3)ccc21 (centres undefined) | 896
29 | O=C(C1CCC1)N1CCCC(OCc2nc(-c3ccccc3)no2)C1 (centres undefined) | 791
30 | CCNC(=O)N1[C@H]2CC[C@@H]1c1cnc(-c3ccc(F)cc3)nc1C2 | 768
31 | CC(C)CC(=O)NCC12CCCC=C1N(C)C(=O)CC2 (centres undefined) | 726
32 | Cc1ccc2c(=O)c3c([nH]c2c1C)CCN(CC(=O)Nc1cccc(C#N)c1)C3 | 607
33 | Cc1ccc(S(=O)(=O)N2CCC3(CC2)NCCN=C3NCc2ccccc2F)cc1C | 750
34 | COc1cccc(NC(=O)Cn2c(C)cc(-c3nnc(-c4ccc(F)cc4)o3)c2C)c1 | 943
35 | COC(=O)c1ccc(C2Nc3ccc(OC)cc3[C@H]3OCCC[C@@H]23)cc1 (some centres undefined) | 1020
36 | CC(C)CN1CCn2cc(C(=O)N3CCN(c4ccccc4)CC3)nc2C1 | 605
37 | CCCN1CCN(C(=O)c2cc3n(n2)CC(C)(C(=O)NC2CCCCCC2)N(C)C3=O)CC1 (centres undefined) | 614
38 | COc1ccc(N2CCN(S(=O)(=O)c3cc(-c4csc(C)n4)sc3C)CC2)cc1 | 1090
39 | Cc1cc(OC(C)C(=O)N[C@@H](C)C(=O)O)c2c3c(c(=O)oc2c1)CCCC3 (some centres undefined) | 767

Further lines, results first:

Row | RP-LC retention time [s] | Structure (SMILES)
40 | 668 | Cn1nc(C(=O)Nc2ccccc2)c2c1CCN(C(=O)CCC(=O)N1CCOCC1)C2
41 | 668 | CCNC(=O)c1cc(-c2ccccc2)n[nH]1
42 | 861 | O=C(CCc1ccccc1)N1CCOc2ccccc2C1
43 | 1050 | CC(C)(C)c1noc(-c2ccc(-n3cnc(C(=O)NCc4ccccc4F)c3)nc2)n1
44 | 1120 | CCOC(=O)c1nc(N(Cc2cccs2)C2CCCC2)c2ccccc2n1
45 | 707 | COc1ccc(OC)c(CNC(=O)c2nc(N3CCCC3)c3ccccc3n2)c1
46 | 655 | CC(NC(=O)c1cc(F)cc(F)c1)C(=O)Nc1nc2ccccc2[nH]1 (centres undefined)
47 | 912 | Cc1ccccc1-n1ccn(Cc2nc(-c3ccc(Cl)cc3)no2)c(=O)c1=O
48 | 903 | Cc1nnc(-c2cn(CC(=O)NC3CCCCCCC3)c3ccccc23)o1
49 | 916 | CCn1c(C(=O)NCCCOC(C)C)cc2c(=O)oc3ccccc3c21
50 | 795 | COc1cc(-c2nc(Cn3cnc4ccccc4c3=O)no2)cc(OC)c1OC
51 | 553 | O=C(Nc1ccccc1F)N1CCN(c2cc(-c3ccncc3)[nH]n2)CC1
52 | 932 | CC(C)Cn1cc(S(=O)(=O)NCc2ccccc2F)c2cccnc21
53 | 949 | O=C(Cc1ccccc1)N1CCCC1c1nc(-c2ccccc2)no1 (centres undefined)
54 | 1110 | Cc1nc(-n2cccc2)sc1C(=O)N1CC(c2nc(-c3cccc(Cl)c3)no2)C1
55 | 1000 | COc1ccc(OC)c(NC(=O)Cn2cccc(-c3nc(-c4ccc(Cl)cc4)no3)c2=O)c1
56 | 1170 | COc1nc2ccccc2nc1N1CCCC(C(=O)Nc2cccc(F)c2)C1 (centres undefined)
57 | 1290 | CCc1ccccc1NC(=O)c1c(O)c2cccnc2n(-c2ccccc2)c1=O
58 | 1090 | CCOC(=O)c1ccccc1NC(=O)N(Cc1cc(=O)[nH]c2ccccc12)CC(C)C
59 | 601 | COc1ccc(NC(=O)c2cnc(N3CCN(C(C)=O)CC3)nc2N)cc1
60 | 784 | CSc1nnc(Cc2nnc(SC)n2-c2ccccc2)n1-c1ccccc1
61 | 1030 | CCCN1C(=O)c2cc(S(=O)(=O)Nc3ccccc3F)ccc2Oc2cccnc21
62 | 710 | Cc1ccc2nc(C)c(NC(=O)C3c4ccccc4Oc4ccccc43)c(=O)n2c1
63 | 1090 | COC(=O)c1cn(C(=O)c2ccccc2)c2ccccc12
64 | 1170 | Cc1ccc(NS(=O)(=O)c2cccnc2Nc2ccc(Cl)cc2)cc1

Row | RP-LC retention time [s] | Structure (SMILES)
65 | 811 | CCc1nnc(-c2ccc3ccn(CC(=O)Nc4ccc(C(=O)OC)cc4)c3c2)o1
66 | 581 | CN(C)c1cc(C(=O)NCc2ccncc2)nc2ccnn12
67 | 658 | COc1ccc(-c2ncc3c(n2)CCN(C(=O)Nc2c(F)cccc2F)C3)cc1
68 | 1070 | CC1=C(C(=O)Nc2cc(Cl)ccc2C(=O)NC(C)c2ccccc2)SCCO1 (centres undefined)
69 | 997 | COc1ccc(NC(=O)Cn2cccc2-c2nnc(-c3ccccc3)o2)cc1Cl
70 | 874 | Cc1ccccc1CNC(=O)c1nnc(-c2ccc(S(=O)(=O)N(C)C)cc2)o1
71 | 614 | COc1ccccc1NC(=O)c1cc2c(s1)CN(C(C)C)C2
72 | 652 | Cc1nnc2ccc(N3CCN(C(=O)CSc4nc5ccccc5s4)CC3)nn12
73 | 772 | CCn1ccc2sc(C)c(C(=O)NCc3cccs3)c2c1=O
74 | 1220 | Nc1ccccc1-n1nc2ccc3ccccc3c2n1
75 | 898 | Fc1cccc(CN2CCO[C@@H](COc3ccccn3)[C@@H]2c2ccccc2)c1
76 | 562 | CN(C)C(CNC(=O)Nc1cccs1)c1ccccc1Cl (centres undefined)
77 | 658 | CCC(=O)Nc1ccc(CCc2nc3ccc(C(=O)NC(C)c4ccccc4)cc3[nH]2)cc1 (centres undefined)
78 | 737 | O=C(CCc1cn(Cc2ccccc2F)c2ccccc12)N1CCN(c2ccccn2)CC1
79 | 1160 | CCCNC(=O)C1CCN(c2ccc(SCC(=O)Nc3ccc(C)cc3Cl)nn2)CC1
80 | 657 | CSc1ccccc1NC(=O)Cc1csc(NC(=O)c2ncccn2)n1
81 | 913 | Cc1cccc(NC(=O)N(C)CCc2noc(COc3ccccc3)n2)c1C
82 | 761 | O=C(Nc1cc(F)cc(F)c1)C1CCCN(c2ccnc(-c3ccc(F)cc3)n2)C1 (centres undefined)
83 | 590 | Cc1cc(C)c2c(N3CCOCC3)nc(C(=O)NCc3cc(F)ccc3F)nc2n1
84 | 611 | CCOc1cc2c(cc1OCC)C1C(C(=O)Nc3cccnc3)c3ccccc3C(=O)N1CC2 (centres undefined)
85 | 1080 | O=C(CSc1nccc2ccccc12)Nc1ccccc1C(F)(F)F
86 | 685 | Cc1cccc(OCC(O)Cn2c(C3CC3)nc3ccccc32)c1 (centres undefined)
87 | 747 | CN1C(=O)c2cc(C(=O)NCc3ccc(F)cc3)nn2CC1(C)C(=O)NC1CCCC1 (centres undefined)
88 | 873 | CCOc1ccccc1C(=O)NC1CCN(C(=O)c2cn(-c3ccc(C)c(C)c3)nn2)CC1
89 | 1230 | Cc1ccc(C)c(N2CCN(c3ncc(S(=O)(=O)c4ccccc4)c(N)n3)CC2)c1
